Results reported in the supplement of paper PMC11061612.

Assays:
[1] = system: COR-L279 (Small Cell Lung Carcinoma); experiment: Bliss excess, mean over the matrix (fraction); higher = more synergy
Method in brief: (§1)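 Cell lines grown in DMEM/F12 or RPMI with 10% FBS were plated in 1536-well plates and held 24 hours at 37°C, 5% CO2 before 72 hours of exposure to two-drug dose matrices, with DMSO typically at 0.2%. CellTiter-Glo 2.0 luminescence gave viability, which was converted to inhibition. Vehicle wells were set to 0 and blank wells to 1. Combination Emax is the second-highest inhibition in the matrix, and Bliss excess is the observed combination effect minus the expected EA + EB − EA·EB, where EA and EB are the single-agent effects.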

[2] = system: CW-2 (Colorectal Carcinoma); experiment: as above
Method in brief: as §1

[3] = system: DMS-114 (Small Cell Lung Carcinoma); experiment: as above
Method in brief: as §1

[4] = system: KU812 (Chronic Myelogenous Leukemia); experiment: as above
Method in brief: as §1

[5] = system: KYSE-270 (Esophageal Squamous Cell Carcinoma); experiment: as above
Method in brief: as §1

M059J (Glioblastoma) [6] = experiment: as above
Method in brief: as §1

[7] = system: MN-60 (B-Lymphoblastic Leukemia); experiment: as above
Method in brief: as §1

[8] = system: MOG-G-CCM (Low Grade Glioma); experiment: as above
Method in brief: as §1

[9] = system: NCCIT (Other Solid Carcinomas); experiment: as above
Method in brief: as §1

NCI-H2731 (Mesothelioma) [10] = experiment: as above
Method in brief: as §1

[11] = system: NCI-H3122 (Lung Adenocarcinoma); experiment: as above
Method in brief: as §1

[12] = system: NCI-H520 (Squamous Cell Lung Carcinoma); experiment: as above
Method in brief: as §1

[13] = system: NCI-H526 (Small Cell Lung Carcinoma); experiment: as above
Method in brief: as §1

[14] = system: NCI-H929 (Plasma Cell Myeloma); experiment: as above
Method in brief: as §1

[15] = system: OCI-AML3 (Acute Myeloid Leukemia); experiment: as above
Method in brief: as §1

SJSA-1 (Osteosarcoma) [16] = experiment: as above
Method in brief: as §1

[17] = system: SK-GT-4 (Esophageal Adenocarcinoma); experiment: as above
Method in brief: as §1

[18] = system: ST486 (Burkitt's Lymphoma); experiment: as above
Method in brief: as §1

[19] = system: T-T (Esophageal Squamous Cell Carcinoma); experiment: as above
Method in brief: as §1

[20] = system: VMRC-RCZ (Kidney Carcinoma); experiment: as above
Method in brief: as §1

[21] = system: COR-L279 (Small Cell Lung Carcinoma); experiment: combination Emax (second highest fraction inhibited in the dose matrix, 72 h); higher = more inhibition; extreme values may be limits of the assay
Method in brief: as §1

[22] = system: CW-2 (Colorectal Carcinoma); experiment: as above
Method in brief: as §1

[23] = system: DMS-114 (Small Cell Lung Carcinoma); experiment: as above
Method in brief: as §1

[24] = system: KU812 (Chronic Myelogenous Leukemia); experiment: as above
Method in brief: as §1

[25] = system: KYSE-270 (Esophageal Squamous Cell Carcinoma); experiment: as above
Method in brief: as §1

M059J (Glioblastoma) [26] = experiment: as above
Method in brief: as §1

[27] = system: MN-60 (B-Lymphoblastic Leukemia); experiment: as above
Method in brief: as §1

[28] = system: MOG-G-CCM (Low Grade Glioma); experiment: as above
Method in brief: as §1

[29] = system: NCCIT (Other Solid Carcinomas); experiment: as above
Method in brief: as §1

NCI-H2731 (Mesothelioma) [30] = experiment: as above
Method in brief: as §1

[31] = system: NCI-H3122 (Lung Adenocarcinoma); experiment: as above
Method in brief: as §1

[32] = system: NCI-H520 (Squamous Cell Lung Carcinoma); experiment: as above
Method in brief: as §1

[33] = system: NCI-H526 (Small Cell Lung Carcinoma); experiment: as above
Method in brief: as §1

[34] = system: NCI-H929 (Plasma Cell Myeloma); experiment: as above
Method in brief: as §1

[35] = system: OCI-AML3 (Acute Myeloid Leukemia); experiment: as above
Method in brief: as §1

SJSA-1 (Osteosarcoma) [36] = experiment: as above
Method in brief: as §1

[37] = system: SK-GT-4 (Esophageal Adenocarcinoma); experiment: as above
Method in brief: as §1

[38] = system: ST486 (Burkitt's Lymphoma); experiment: as above
Method in brief: as §1

[39] = system: T-T (Esophageal Squamous Cell Carcinoma); experiment: as above
Method in brief: as §1

[40] = system: VMRC-RCZ (Kidney Carcinoma); experiment: as above
Method in brief: as §1
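Throughout, for Bliss excess, mean over the matrix: after 72 h of two-drug dosing.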

| Compound | Bliss excess [1] | Bliss excess [2] | Bliss excess [3] | Bliss excess [4] | Bliss excess [5] | Bliss excess (M059J (Glioblastoma) [6]) | Bliss excess [7] | Bliss excess [8] | Bliss excess [9] | Bliss excess (NCI-H2731 (Mesothelioma) [10]) | Bliss excess [11] | Bliss excess [12] | Bliss excess [13] | Bliss excess [14] | Bliss excess [15] | Bliss excess (SJSA-1 (Osteosarcoma) [16]) | Bliss excess [17] | Bliss excess [18] | Bliss excess [19] | Bliss excess [20] | combination Emax [21] | combination Emax [22] | combination Emax [23] | combination Emax [24] | combination Emax [25] | combination Emax (M059J (Glioblastoma) [26]) | combination Emax [27] | combination Emax [28] | combination Emax [29] | combination Emax (NCI-H2731 (Mesothelioma) [30]) | combination Emax [31] | combination Emax [32] | combination Emax [33] | combination Emax [34] | combination Emax [35] | combination Emax (SJSA-1 (Osteosarcoma) [36]) | combination Emax [37] | combination Emax [38] | combination Emax [39] | combination Emax [40] |
| --- | --- | --- | --- | --- | --- | --- | --- | --- | --- | --- | --- | --- | --- | --- | --- | --- | --- | --- | --- | --- | --- | --- | --- | --- | --- | --- | --- | --- | --- | --- | --- | --- | --- | --- | --- | --- | --- | --- | --- | --- |
| C=CCn1c(=O)c2cnc(Nc3ccc(N4CCN(C)CC4)cc3)nc2n1-c1cccc(C(C)(C)O)n1 [AZD1775] + Nc1ccn([C@@H]2O[C@H](CO)[C@@H](O)C2(F)F)c(=O)n1 [Gemcitabine] (first compound max 1 µM, partner max 0.3 µM) | 0.0556 | -0.0511 | 0.0581 | -0.0107 | 0.0411 | 0.0175 | -0.0157 | 0.0455 | 0.0864 | 0.0305 | -0.0379 | 0.0314 | 0.0642 | 0.0302 | 0.0084 | -0.0822 | 0.006 | 0.0019 | 0.0692 | 0.0417 | 0.987 | 0.559 | 0.643 | 0.836 | 0.983 | 0.802 | 0.653 | 0.778 | 0.899 | 0.533 | 0.803 | 0.871 | 0.968 | 0.906 | 0.95 | 0.656 | 0.44 | 0.985 | 0.521 | 0.481 |
| CN(CCO)CC[C@H](CSc1ccccc1)Nc1ccc(S(=O)(=O)NC(=O)c2ccc(N3CCC([C@@H](O)c4ccccc4-c4ccc(Cl)cc4)CC3)cc2)cc1S(=O)(=O)C(F)(F)F [AZD4320] + Nc1ccn([C@@H]2O[C@H](CO)[C@@H](O)C2(F)F)c(=O)n1 [Gemcitabine] (first compound max 1 µM, 7x7, partner max 0.3 µM) | 0.0843 | -0.058 | 0.0444 | -0.0788 | -0.0293 | -0.0021 | -0.0618 | -0.0629 | -0.0058 | 0.0222 | -0.0298 | -0.0178 | 0.0952 | -0.0176 | 0.0034 | 0.0439 | -0.0288 | -0.0194 | 0.0546 | 0.0103 | 1 | 0.557 | 0.524 | 0.954 | 0.89 | 0.837 | 0.493 | 0.597 | 0.187 | 0.44 | 0.846 | 0.894 | 0.993 | 0.9 | 0.984 | 0.952 | 0.31 | 0.972 | 0.476 | 0.589 |
| Cc1c2c(nn1C)CSCc1cc(n(C)n1)CSc1cc(c3ccccc3c1)OCCCc1c(C(=O)O)n(C)c3c-2c(Cl)ccc13 [AZD5991] + Nc1ccn([C@@H]2O[C@H](CO)[C@@H](O)C2(F)F)c(=O)n1 [Gemcitabine] (first compound max 1 µM, 7x7, partner max 0.3 µM) | -0.012 | -0.0677 | 0.07 | -0.0709 | -0.0129 | -0.0325 | -0.0611 | -0.0059 | -0.0617 | -0.0359 | 0.0092 | -0.0389 | 0.0249 | 0.0087 | 0.0245 | -0.0319 | -0.042 | 0.0089 | 0.058 | -0.001 | 0.975 | 0.613 | 0.908 | 0.842 | 0.965 | 0.681 | 0.518 | 0.523 | 0.725 | 0.358 | 0.922 | 0.811 | 0.914 | 1 | 1 | 0.725 | 0.31 | 0.904 | 0.929 | 0.392 |
